Experimental data taken from PubChem BioAssay AID256 (DTP/NCI, 2004).
Several values for one entry are separate records, joined by “and”; a condition that tells them apart may be missing. Equal values may be shown once. Toxic doses and inconclusive results are not listed. Rule for the calls: active = survival T/C of 150% or more; inactive = T/C below 125% in these data.

System: CD2F1 mice, L1210 leukemia ip, survival T/C
Experiment: NCI In Vivo Anticancer Drug Screen. Data for tumor model L1210 Leukemia (intraperitoneal) in CD2F1 (CDF1) mice
Conditions: endpoint: mean survival time, higher = longer survival
How it was run: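 Activity against a transplanted murine tumor was judged by comparing the compound group with a vehicle group. The outcome in the treated animals was divided by that in the controls.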

[1] = dose: 100.0 mg/kg/injection, schedule: Q01DX009 (ip), vehicle: saline
[2] = dose: 200.0 mg/kg/injection, schedule: Q01DX009 (ip), vehicle: saline
[3] = dose: 100.0 mg/kg/injection, schedule: Q01DX009 (ip), vehicle: saline with Tween-80
[4] = dose: 200.0 mg/kg/injection, schedule: Q01DX009 (ip), vehicle: saline with Tween-80
[5] = dose: 400.0 mg/kg/injection, schedule: Q01DX009 (ip), vehicle: saline with Tween-80
[6] = dose: 100.0 mg/kg/injection, schedule: Q04DX003 (ip), vehicle: saline with Tween-80
[7] = dose: 200.0 mg/kg/injection, schedule: Q04DX003 (ip), vehicle: saline with Tween-80
[8] = dose: 400.0 mg/kg/injection, schedule: Q04DX003 (ip), vehicle: saline with Tween-80

Measured: T/C

O=c1[nH]c(=O)n(C2CC(O)C(CO)O2)cc1I (configuration not stated)
inactive: dose: 50.0 mg/kg/injection, schedule: Q01DX007 (ip), vehicle: saline 110 % of control | dose: 50.0 mg/kg/injection, schedule: Q01DX009 (ip), vehicle: saline 106 % of control | dose: 50.0 mg/kg/injection, schedule: Q03DX003 (ip), vehicle: saline 104 % of control | dose: 50.0 mg/kg/injection, schedule: Q04DX003 (ip), vehicle: saline 101 % of control | dose: 100.0 mg/kg/injection, schedule: Q01DX007 (ip), vehicle: saline 117 % of control | [1] 108 % of control | dose: 100.0 mg/kg/injection, schedule: Q03DX003 (ip), vehicle: saline 107 % of control | dose: 100.0 mg/kg/injection, schedule: Q04DX003 (ip), vehicle: saline 106 % of control | dose: 200.0 mg/kg/injection, schedule: Q01DX007 (ip), vehicle: saline 108 % of control | [2] 111 % of control | dose: 200.0 mg/kg/injection, schedule: Q03DX003 (ip), vehicle: saline 115 % of control | dose: 200.0 mg/kg/injection, schedule: Q04DX003 (ip), vehicle: saline 106 % of control | dose: 500.0 mg/kg/injection, schedule: Q01DX009 (ip), vehicle: saline 107 % of control | dose: 1000.0 mg/kg/injection, schedule: Q01DX009 (ip), vehicle: saline 103 % of control

CCN1CC1 (tested in a mixture with another compound)
inactive: dose: 1.17 mg/kg/injection, schedule: Q01DX009 (ip), vehicle: Klucel (hydroxypropylcellulose) (HPC) 93 % of control | dose: 1.56 mg/kg/injection, schedule: Q04DX003 (ip), vehicle: other 92 % of control | dose: 2.34 mg/kg/injection, schedule: Q01DX009 (ip), vehicle: Klucel (hydroxypropylcellulose) (HPC) 102 % of control | dose: 3.12 mg/kg/injection, schedule: Q04DX003 (ip), vehicle: other 101 % of control | dose: 4.68 mg/kg/injection, schedule: Q01DX009 (ip), vehicle: Klucel (hydroxypropylcellulose) (HPC) 86 % of control | dose: 6.25 mg/kg/injection, schedule: Q04DX003 (ip), vehicle: other 91 % of control | dose: 9.37 mg/kg/injection, schedule: Q04DX003 (ip), vehicle: Klucel (hydroxypropylcellulose) (HPC) 96 % of control and 98 % of control | dose: 14.2 mg/kg/injection, schedule: Q04DX003 (ip), vehicle: Klucel (hydroxypropylcellulose) (HPC) 86 % of control and 94 % of control | dose: 21.3 mg/kg/injection, schedule: Q04DX003 (ip), vehicle: Klucel (hydroxypropylcellulose) (HPC) 103 % of control

Cc1ccc(N2OCCN(C(=O)c3cc([N+](=O)[O-])cc([N+](=O)[O-])c3)C2c2ccccc2)cc1 (configuration not stated)
inactive: [3] 91 % of control | [4] 95 % of control | [5] 91 % of control

Nc1ccc(S(=O)(=O)N(CCO)CCO)cc1[N+](=O)[O-]
inactive: [6] 96 % of control | [7] 98 % of control | [8] 95 % of control

Cc1nc2ccc(Cl)c(Cl)c2s1
inactive: [6] 106 % of control | [7] 106 % of control | [8] 104 % of control

O=C1CSC(=S)N1/N=C/c1ccc2c(c1)OCO2
inactive: dose: 75.0 mg/kg/injection, schedule: Q01DX001 (ip), vehicle: other 94 % of control | dose: 150.0 mg/kg/injection, schedule: Q01DX001 (ip), vehicle: other 93 % of control | dose: 300.0 mg/kg/injection, schedule: Q01DX001 (ip), vehicle: other 97 % of control

CCc1ccc(NC(=O)c2cccc(Cl)c2)cc1
inactive: [3] 93 % of control | [6] 95 % of control | [4] 109 % of control | [7] 98 % of control | [5] 98 % of control | [8] 98 % of control

CC(=O)OC1C2C=CC1C1CC21 (configuration not stated)
inactive: dose: 100.0 mg/kg/injection, schedule: Q01DX001 (ip), vehicle: saline 96 % of control | dose: 200.0 mg/kg/injection, schedule: Q01DX001 (ip), vehicle: saline 100 % of control | dose: 400.0 mg/kg/injection, schedule: Q01DX001 (ip), vehicle: saline 98 % of control

O=C1CSc2ccccc2N1CCN1C(=O)CSc2ccccc21
inactive: dose: 100.0 mg/kg/injection, schedule: Q04DX003 (ip), vehicle: Klucel (hydroxypropylcellulose) (HPC) 90 % of control | dose: 200.0 mg/kg/injection, schedule: Q04DX003 (ip), vehicle: Klucel (hydroxypropylcellulose) (HPC) 86 % of control | dose: 400.0 mg/kg/injection, schedule: Q04DX003 (ip), vehicle: Klucel (hydroxypropylcellulose) (HPC) 86 % of control

CCOC(=O)c1cc(C=O)nc2c(Cl)cc(Cl)cc12
inactive: [6] 96 % of control | [8] 98 % of control

Nc1ccc(Nc2ccc([N+](=O)[O-])cc2[N+](=O)[O-])cc1
inactive: dose: 100.0 mg/kg/injection, schedule: Q01DX001 (ip), vehicle: saline with Tween-80 89 % of control | dose: 200.0 mg/kg/injection, schedule: Q01DX001 (ip), vehicle: saline with Tween-80 96 % of control | dose: 400.0 mg/kg/injection, schedule: Q01DX001 (ip), vehicle: saline with Tween-80 96 % of control

COC(=O)c1csc(CCN)n1
inactive: [1] 102 % of control | [2] 95 % of control | dose: 400.0 mg/kg/injection, schedule: Q01DX009 (ip), vehicle: saline 92 % of control

Cc1cccc(S(=O)(=O)N(C)C)c1
inactive: [3] 95 % of control | [6] 94 % of control | [4] 95 % of control | [7] 92 % of control | [5] 92 % of control | [8] 96 % of control

CC(=O)OCC1OC(n2cc(CBr)nn2)C(OC(C)=O)C(OC(C)=O)C1OC(C)=O (configuration not stated)
inactive: dose: 3.12 mg/kg/injection, schedule: Q01DX009 (ip), vehicle: saline with Tween-80 94 % of control and 96 % of control | dose: 6.25 mg/kg/injection, schedule: Q01DX009 (ip), vehicle: saline with Tween-80 98 % of control and 102 % of control | dose: 6.25 mg/kg/injection, schedule: Q01DX009 (ip), vehicle: suspension in saline 101 % of control | dose: 6.25 mg/kg/injection, schedule: Q04DX003 (ip), vehicle: suspension in saline 100 % of control | dose: 7.5 mg/kg/injection, schedule: Q01DX009 (ip), vehicle: saline 98 % of control | dose: 12.5 mg/kg/injection, schedule: Q01DX009 (ip), vehicle: saline with Tween-80 94 % of control and 104 % of control | dose: 12.5 mg/kg/injection, schedule: Q01DX009 (ip), vehicle: suspension in saline 102 % of control | dose: 12.5 mg/kg/injection, schedule: Q04DX003 (ip), vehicle: suspension in saline 107 % of control | dose: 15.0 mg/kg/injection, schedule: Q01DX009 (ip), vehicle: saline 100 % of control | dose: 25.0 mg/kg/injection, schedule: Q01DX009 (ip), vehicle: saline with Tween-80 102 % of control and 108 % of control | dose: 25.0 mg/kg/injection, schedule: Q01DX009 (ip), vehicle: suspension in saline 101 % of control | dose: 25.0 mg/kg/injection, schedule: Q04DX003 (ip), vehicle: suspension in saline 100 % of control | dose: 30.0 mg/kg/injection, schedule: Q01DX009 (ip), vehicle: saline 98 % of control | dose: 50.0 mg/kg/injection, schedule: Q01DX009 (ip), vehicle: saline with Tween-80 95 % of control and 102 % of control | dose: 50.0 mg/kg/injection, schedule: Q01DX009 (ip), vehicle: suspension in saline 96 % of control | dose: 50.0 mg/kg/injection, schedule: Q04DX003 (ip), vehicle: suspension in saline 103 % of control | dose: 60.0 mg/kg/injection, schedule: Q01DX009 (ip), vehicle: saline 102 % of control | [3] 102 % of control

C=CCCCCCCCCC(=O)NCC1CC1
inactive: [3] 94 % of control | [4] 100 % of control | [5] 86 % of control
